Source: patent US20060005464A1, “Alkyl ethanolamine and biocide combination for hydrocarbon based fuels” (priority 2004, published 2006)
Values belong to the compound of their own block, whether it stands above or below them.

Experiments:
Type in all cases: cell-based
[1] = system: Pseudomonas Aeruginosa (ATCC27853); assay: Microtiter plate growth of Pseudomonas Aeruginosa with amines and GROTAN; settings: for growth of Pseudomonas Aeruginosa (Table 1 entry): pH 8.5, 24 hours
[2] = system: Pseudomonas aeruginosa (ATCC 10145); assay: Maximum growth slope of Pseudomonas aeruginosa with Proxel DB20 (BIT) plus alkanolamine; settings: pH 8.5, TSB, 24 hour
[3] = system: Mycobacterium smegmatis (ATCC # 19420); assay: End-point optical density of Mycobacterium smegmatis with N-alkyl alkanolamines (590 nm, 72 h); settings: for end-point optical density: 590 nm, after 72 hours, pH 8.5, tetrazolium dye
[4] = system: Aureobasidium pullulans (ATCC 12536); assay: End-point optical density of Aureobasidium pullulans with MIT/CMIT plus alkanolamine; settings: SAB media pH 8.5
Procedure: The impact of N-alkylalkanolamines on the control of the bacterial species Aureobasidium pullulans (ATCC 12536), a bacteria common in water-oil systems, was evaluated by measuring optical absorbance of samples treated with various concentrations of N-alkyl alkanolamines. […] SAB media at pH 8.5 (Tris buffer) was employed. Table 8 summarizes measurement of end-point optical density after 24 hours and 48 hours: […]

[5] = system: Mycobacterium marinum (ATCC # 19420); assay: End-point optical density and MIC, Mycobacterium marinum (660 nm, 72 h); settings: pH 8.5; for MIC (estimate of the concentration range in which the amine starts to inhibit growth): 72 hours; for end-point optical density: 660 nm, after 72 hours
Procedure: (§1) The impact of N-alkylalkanolamines on the control of the bacterial species Mycobacterium smegmatis (ATCC # 19420), a bacteria common in water-oil systems, was evaluated by measuring optical absorbance of samples treated with various alkyl ethanolaminesis DCHA=Dicyclohexylamine, OAE=Octylaminoethanol, ODEA=Octyldiethanolamine. Bacterial concentration was monitored indirectly via optical absorbance at 660 nm. The values reported are end-point optical densities in milliOD units after 48 hours. The media consisted of a standardized solution of clear nutrient broth (Middlebrook 7H10 with OADC supplement), amine, buffer (Tris) and water. The pH was adjusted initially to 8.5 with Tris buffer. The first column in the Table gives the amine concentration in ppm. The final two columns give data for cells that also contained 2 grams per liter of boric acid. In all cases, the values are averages of at least three replicates. The final row of the Table gives an estimate of the concentration range in which the amine in question starts to inhibit the growth of this bacterial species.
The impact of the N-alkylalkanolamines of Example 6 on the control of the bacterial species Mycobacterium marinum (ATCC # 19420), bacteria common in water-oil systems, was evaluated as described above in Example 6. Bacterial concentration in the experimental media was monitored indirectly via optical absorbance at 660 nm. The values reported are end-point optical densities in milliOD units after 72 hours. The media consisted of a standardized solution of clear nutrient broth (Middlebrook 7H10 with OADC supplement), amine, buffer (Tris) and water. The pH was adjusted initially to 8.5 with Tris buffer. The first column in the Table gives the amine concentration in ppm. In all cases, the values are averages of at least three replicates. The final row of the Table gives an estimate of the concentration range in which the amine in question starts to inhibit the growth of this bacterial species.

[6] = system: Mycobacterium smegmatis (ATCC # 19420); assay: End-point optical density and MIC, Mycobacterium smegmatis (660 nm, 48 h); settings: for MIC (estimate of the concentration range in which the amine starts to inhibit growth): 48 hours; for end-point optical density: 660 nm, after 48 hours
Procedure: as §1

[7] = amine 2000 ppm plus GROTAN 100 ppm
[8] = amine 2000 ppm plus GROTAN 250 ppm
[9] = amine 2000 ppm plus GROTAN 500 ppm
[10] = amine 2000 ppm plus GROTAN 1000 ppm
[11] = amine 2000 ppm plus GROTAN 2000 ppm
[12] = amine 4000 ppm plus GROTAN 100 ppm
[13] = amine 4000 ppm plus GROTAN 250 ppm
[14] = amine 4000 ppm plus GROTAN 500 ppm
[15] = amine 4000 ppm plus GROTAN 1000 ppm
[16] = amine 4000 ppm plus GROTAN 2000 ppm
[17] = amine 1000 ppm plus BIT 150 ppm
[18] = amine 1000 ppm plus BIT 250 ppm
[19] = amine 1000 ppm plus BIT 500 ppm
[20] = amine 2000 ppm plus BIT 150 ppm
[21] = amine 2000 ppm plus BIT 250 ppm
[22] = amine 2000 ppm plus BIT 500 ppm
[23] = amine 500 ppm plus 2 grams per liter of boric acid
[24] = amine 1000 ppm plus 2 grams per liter of boric acid
[25] = amine 2000 ppm plus 2 grams per liter of boric acid
[26] = with 2 grams per liter of boric acid

SMILES: CCCCN(CCO)CCO [BDEA, butyldiethanolamine]
growth of Pseudomonas Aeruginosa (Table 1 entry) [1, 7]: 0.52
growth of Pseudomonas Aeruginosa (Table 1 entry) [1, 8]: 0.72
growth of Pseudomonas Aeruginosa (Table 1 entry) [1, 9]: 0.79
growth of Pseudomonas Aeruginosa (Table 1 entry) [1, 10]: 0.32
growth of Pseudomonas Aeruginosa (Table 1 entry) [1, 11]: 0.33
growth of Pseudomonas Aeruginosa (Table 1 entry) ([1]; amine 2000 ppm, GROTAN 0 ppm): 0.67
growth of Pseudomonas Aeruginosa (Table 1 entry) [1, 12]: 0.67
growth of Pseudomonas Aeruginosa (Table 1 entry) [1, 13]: 0.51
growth of Pseudomonas Aeruginosa (Table 1 entry) [1, 14]: 0.30
growth of Pseudomonas Aeruginosa (Table 1 entry) [1, 15]: 0.28
growth of Pseudomonas Aeruginosa (Table 1 entry) [1, 16]: 0.33
growth of Pseudomonas Aeruginosa (Table 1 entry) ([1]; amine 4000 ppm, GROTAN 0 ppm): 0.45
enhancement in the biocidal effect of GROTAN ([1]; conclusion from Table 1): provide an enhancement in the biocidal effect of GROTAN®

SMILES: CCCCN(CCO)CCCC [DBAE, dibutylaminoethanol]
maximum growth slope [2, 17]: 0.221 OD per time
maximum growth slope [2, 18]: 0.255 OD per time
maximum growth slope [2, 19]: 0.143 OD per time
maximum growth slope ([2]; amine 1000 ppm, BIT 0 ppm): 0.228 OD per time
maximum growth slope [2, 20]: 0.084 OD per time
maximum growth slope [2, 21]: 0.104 OD per time
maximum growth slope [2, 22]: 0.000 OD per time
maximum growth slope ([2]; amine 2000 ppm, BIT 0 ppm): 0.114 OD per time
end-point optical density ([3]; amine 470 ppm): 2000 milliOD
end-point optical density ([3]; amine 940 ppm): 2000 milliOD
end-point optical density ([3]; amine 1880 ppm): 2000 milliOD
end-point optical density ([3]; amine 3750 ppm): 1900 milliOD
end-point optical density ([3]; amine 7500 ppm): 1200 milliOD
end-point optical density ([4]; amine 1000 ppm plus 50 ppm MIT/CMIT, 24 hours): 0.3
end-point optical density ([4]; amine 1000 ppm plus 50 ppm MIT/CMIT, 48 hours): 0.4
end-point optical density ([4]; amine 2000 ppm plus 50 ppm MIT/CMIT, 24 hours): 0.2
end-point optical density ([4]; amine 2000 ppm plus 50 ppm MIT/CMIT, 48 hours): 0.2

SMILES: C1CCC(NC2CCCCC2)CC1 [DCHA, Dicyclohexylamine, reference compound]
MIC (estimate of the concentration range in which the amine starts to inhibit growth) [5]: >4000 ppm
end-point optical density ([5]; amine 400 ppm): 0.6 milliOD
end-point optical density ([5]; amine 800 ppm): 0.6 milliOD
end-point optical density ([5]; amine 1200 ppm): 0.5 milliOD
end-point optical density ([5]; amine 2000 ppm): 0.4 milliOD
end-point optical density ([5]; amine 4000 ppm): 0.4 milliOD
MIC (estimate of the concentration range in which the amine starts to inhibit growth) ([6]; pH 8.5, no boric acid): 1500-2000 ppm
end-point optical density [6, 23]: 1.125 milliOD
end-point optical density ([6]; amine 500 ppm, pH 8.5): 1.02 milliOD
end-point optical density [6, 24]: 0.855 milliOD
end-point optical density ([6]; amine 1000 ppm, pH 8.5): 0.802 milliOD
end-point optical density ([6]; amine 1500 ppm, pH 8.5): 0.995 milliOD
end-point optical density [6, 25]: 0.085 milliOD
end-point optical density ([6]; amine 2000 ppm, pH 8.5): 0.268 milliOD
MIC (estimate of the concentration range in which the amine starts to inhibit growth) [6, 26]: 1000-2000 ppm

SMILES: CCCCCCCCNCCO [OAE, n-octylaminoethanol]
maximum growth slope [2, 17]: 0.000 OD per time
maximum growth slope [2, 18]: 0.000 OD per time
maximum growth slope [2, 19]: 0.000 OD per time
maximum growth slope ([2]; amine 1000 ppm, BIT 0 ppm): 0.000 OD per time
maximum growth slope [2, 20]: 0.000 OD per time
maximum growth slope [2, 21]: 0.000 OD per time
maximum growth slope [2, 22]: 0.000 OD per time
maximum growth slope ([2]; amine 2000 ppm, BIT 0 ppm): 0.000 OD per time
MIC (estimate of the concentration range in which the amine starts to inhibit growth) [5]: 1200-2000 ppm
end-point optical density ([5]; amine 400 ppm): 0.4 milliOD
end-point optical density ([5]; amine 800 ppm): 0.4 milliOD
end-point optical density ([5]; amine 1200 ppm): 0.4 milliOD
end-point optical density ([5]; amine 2000 ppm): 0 milliOD
end-point optical density ([5]; amine 4000 ppm): 0 milliOD
end-point optical density ([3]; amine 470 ppm): 0 milliOD
end-point optical density ([3]; amine 940 ppm): 0 milliOD
end-point optical density ([3]; amine 1880 ppm): 0 milliOD
end-point optical density ([3]; amine 3750 ppm): 0 milliOD
end-point optical density ([3]; amine 7500 ppm): 0 milliOD
effectiveness against Mycobacteria ([3]; compared with AMP, conclusion from Table 5): markedly more effective than AMP
end-point optical density ([4]; amine 200 ppm plus 50 ppm MIT/CMIT, 24 hours): 0.1
end-point optical density ([4]; amine 200 ppm plus 50 ppm MIT/CMIT, 48 hours): 0.1
end-point optical density ([4]; amine 500 ppm plus 50 ppm MIT/CMIT, 24 hours): 0
end-point optical density ([4]; amine 500 ppm plus 50 ppm MIT/CMIT, 48 hours): 0
MIC (estimate of the concentration range in which the amine starts to inhibit growth) ([6]; pH 8.5, no boric acid): <500 ppm
end-point optical density [6, 23]: 0.100 milliOD
end-point optical density ([6]; amine 500 ppm, pH 8.5): 0.184 milliOD
end-point optical density [6, 24]: 0.121 milliOD
end-point optical density ([6]; amine 1000 ppm, pH 8.5): 0.149 milliOD
end-point optical density ([6]; amine 1500 ppm, pH 8.5): 0.213 milliOD
end-point optical density [6, 25]: 0.015 milliOD
end-point optical density ([6]; amine 2000 ppm, pH 8.5): 0.226 milliOD
end-point optical density ([6]; amine 4000 ppm, pH 8.5): 0.205 milliOD
MIC (estimate of the concentration range in which the amine starts to inhibit growth) [6, 26]: <500 ppm

MIC (estimate of the concentration range in which the amine starts to inhibit growth) [5]: 1200-2000 ppm
MIC (estimate of the concentration range in which the amine starts to inhibit growth) ([6]; pH 8.5, no boric acid): 500-1000 ppm
SMILES: CCCCCCCCN(CCO)CCO [ODEA, Octyldiethanolamine]
end-point optical density ([5]; amine 400 ppm): 0.6 milliOD
end-point optical density ([5]; amine 800 ppm): 0.4 milliOD
end-point optical density ([5]; amine 1200 ppm): 0.4 milliOD
end-point optical density ([5]; amine 2000 ppm): 0.1 milliOD
end-point optical density ([5]; amine 4000 ppm): 0 milliOD
end-point optical density ([6]; amine 500 ppm, pH 8.5): 0.847 milliOD
end-point optical density ([6]; amine 1000 ppm, pH 8.5): 0.117 milliOD
end-point optical density ([6]; amine 1500 ppm, pH 8.5): 0.260 milliOD
end-point optical density ([6]; amine 2000 ppm, pH 8.5): 0.225 milliOD

SMILES: CC(C)(C)NCCO [TBAE, tert-butylaminoethanol]
growth of Pseudomonas Aeruginosa (Table 1 entry) [1, 7]: 0.72
growth of Pseudomonas Aeruginosa (Table 1 entry) [1, 8]: 0.69
growth of Pseudomonas Aeruginosa (Table 1 entry) [1, 9]: 0.83
growth of Pseudomonas Aeruginosa (Table 1 entry) [1, 10]: 0.30
growth of Pseudomonas Aeruginosa (Table 1 entry) [1, 11]: 0.35
growth of Pseudomonas Aeruginosa (Table 1 entry) ([1]; amine 2000 ppm, GROTAN 0 ppm): 0.67
growth of Pseudomonas Aeruginosa (Table 1 entry) [1, 12]: 0.58
growth of Pseudomonas Aeruginosa (Table 1 entry) [1, 13]: 0.59
growth of Pseudomonas Aeruginosa (Table 1 entry) [1, 14]: 0.34
growth of Pseudomonas Aeruginosa (Table 1 entry) [1, 15]: 0.28
growth of Pseudomonas Aeruginosa (Table 1 entry) [1, 16]: 0.36
growth of Pseudomonas Aeruginosa (Table 1 entry) ([1]; amine 4000 ppm, GROTAN 0 ppm): 0.55
